From PubChem BioAssay AID1259407 (Chemical Carcinogenesis Research Information System (CCRIS), 2018)
The source made the active and inactive calls. No rule for the calls is given here.

System: CCRIS mutagenicity, Ames/micronucleus/aberration tests
Assay: CCRIS mutagenicity studies

Nc1ccc(-c2ccccc2)cc1
mutagenic call (Test System: AMES SALMONELLA TYPHIMURIUM, Strain/Indicator: TA100, Metabolic Activation: TOBACCO CELL-FREE TXIMX, Method: PREINCUBATION): active; positive
mutagenic call (Test System: AMES SALMONELLA TYPHIMURIUM, Strain/Indicator: TA1535, Metabolic Activation: NONE, Method: STANDARD PLATE): inactive; negative
mutagenic call (Test System: AMES SALMONELLA TYPHIMURIUM, Strain/Indicator: TA1537, Metabolic Activation: RAT, LIVER, S-9, AROCLOR 1254, Method: STANDARD PLATE): active; positive
mutagenic call (Test System: AMES SALMONELLA TYPHIMURIUM, Strain/Indicator: TA1538, Metabolic Activation: GUINEA PIG, LIVER, INTACT HEPATOCYTES, Method: PREINCUBATION): active; positive
mutagenic call (Test System: AMES SALMONELLA TYPHIMURIUM, Strain/Indicator: TA1538, Metabolic Activation: GUINEA PIG, LIVER, S-9, ACETYL COENZYME A, Method: PREINCUBATION): active; positive
mutagenic call (Test System: AMES SALMONELLA TYPHIMURIUM, Strain/Indicator: TA1538, Metabolic Activation: GUINEA PIG, LIVER, S-9, Method: PREINCUBATION): active; positive
mutagenic call (Test System: AMES SALMONELLA TYPHIMURIUM, Strain/Indicator: TA1538, Metabolic Activation: HAMSTER, LIVER, INTACT HEPATOCYTES, Method: PREINCUBATION): inactive; negative
mutagenic call (Test System: AMES SALMONELLA TYPHIMURIUM, Strain/Indicator: TA1538, Metabolic Activation: HAMSTER, LIVER, S-9, ACETYL COENZYME A, Method: PREINCUBATION): active; positive
mutagenic call (Test System: AMES SALMONELLA TYPHIMURIUM, Strain/Indicator: TA1538, Metabolic Activation: HAMSTER, LIVER, S-9, Method: PREINCUBATION): active; positive
mutagenic call (Test System: AMES SALMONELLA TYPHIMURIUM, Strain/Indicator: TA1538, Metabolic Activation: RAT, LIVER, INTACT HEPATOCYTES, Method: PREINCUBATION): active; positive
mutagenic call (Test System: AMES SALMONELLA TYPHIMURIUM, Strain/Indicator: TA1538, Metabolic Activation: RAT, LIVER, S-9, ACETYL COENZYME A, Method: PREINCUBATION): active; positive
mutagenic call (Test System: AMES SALMONELLA TYPHIMURIUM, Strain/Indicator: TA1538, Metabolic Activation: RAT, LIVER, S-9, AROCLOR 1254, Method: STANDARD PLATE): active; positive
mutagenic call (Test System: AMES SALMONELLA TYPHIMURIUM, Strain/Indicator: TA1538, Metabolic Activation: RAT, LIVER, S-9, KC500 OR PHENOBARBITAL, Method: LIQUID SUSPENSION): active; positive
mutagenic call (Test System: AMES SALMONELLA TYPHIMURIUM, Strain/Indicator: TA1538, Metabolic Activation: RAT, LIVER, S-9, PHENOBARBITAL, Method: STANDARD PLATE): active; positive
mutagenic call (Test System: AMES SALMONELLA TYPHIMURIUM, Strain/Indicator: TA1538, Metabolic Activation: RAT, LIVER, S-9, Method: PREINCUBATION): active; positive
mutagenic call (Test System: AMES SALMONELLA TYPHIMURIUM, Strain/Indicator: YG1021, Metabolic Activation: TOBACCO CELL-FREE TXIMX, Method: PREINCUBATION): active; positive
mutagenic call (Test System: AMES SALMONELLA TYPHIMURIUM, Strain/Indicator: YG1021, Metabolic Activation: TOBACCO TX1 CELLS, Method: PREINCUBATION): active; positive
mutagenic call (Test System: AMES SALMONELLA TYPHIMURIUM, Strain/Indicator: YG1024, Metabolic Activation: HUMAN, UROEPITHELIAL CELL, MICROSOMES, Method: PREINCUBATION): active; positive
mutagenic call (Test System: AMES SALMONELLA TYPHIMURIUM, Strain/Indicator: YG1024, Metabolic Activation: PLANT CELLS, Method: PREINCUBATION): active; positive
mutagenic call (Test System: AMES SALMONELLA TYPHIMURIUM, Strain/Indicator: YG1024, Metabolic Activation: TOBACCO CELL-FREE EXTRACT, Method: PREINCUBATION): active; positive
mutagenic call (Test System: AMES SALMONELLA TYPHIMURIUM, Strain/Indicator: YG1024, Metabolic Activation: TOBACCO CELL-FREE TXIMX, Method: PREINCUBATION): active; positive
mutagenic call (Test System: AMES SALMONELLA TYPHIMURIUM, Strain/Indicator: YG1024, Metabolic Activation: TOBACCO TX1 CELLS, Method: PREINCUBATION): active; positive
mutagenic call (Test System: AMES SALMONELLA TYPHIMURIUM, Strain/Indicator: YG1026, Metabolic Activation: TOBACCO CELL-FREE TXIMX, Method: PREINCUBATION): active; positive
mutagenic call (Test System: AMES SALMONELLA TYPHIMURIUM, Strain/Indicator: YG1026, Metabolic Activation: TOBACCO TX1 CELLS, Method: PREINCUBATION): inactive; negative
mutagenic call (Test System: AMES SALMONELLA TYPHIMURIUM, Strain/Indicator: YG1029, Metabolic Activation: MOUSE LIVER S-9, AROCLOR 1254, 10%, Method: PREINCUBATION): active; positive
mutagenic call (Test System: AMES SALMONELLA TYPHIMURIUM, Strain/Indicator: YG1029, Metabolic Activation: RAT LIVER S-9, AROCLOR 1254, 10%, Method: PREINCUBATION): active; positive
mutagenic call (Test System: AMES SALMONELLA TYPHIMURIUM, Strain/Indicator: YG1029, Metabolic Activation: TOBACCO CELL-FREE EXTRACT, Method: PREINCUBATION): active; positive
mutagenic call (Test System: AMES SALMONELLA TYPHIMURIUM, Strain/Indicator: YG1029, Metabolic Activation: TOBACCO CELL-FREE TXIMX, Method: PREINCUBATION): active; positive
mutagenic call (Test System: AMES SALMONELLA TYPHIMURIUM, Strain/Indicator: YG1029, Metabolic Activation: TOBACCO TX1 CELLS, Method: PREINCUBATION): active; positive
mutagenic call (Test System: Ames Salmonella Typhimurium, Strain/Indicator: TA102, Metabolic Activation: None, Method: Preincubation): inactive; negative
mutagenic call (Test System: Ames Salmonella typhimurium, Strain/Indicator: TA102, Metabolic Activation: Rat, liver, S-9, Aroclor 1254, 4%, Method: Preincubation): active; positive
mutagenic call (Test System: CHINESE HAMSTER OVARY, Strain/Indicator: CHO-K1-BH4 (HGPRT), Metabolic Activation: RAT, LIVER, S-9, AROCLOR, Method: SUSPENSION/PLATE): active; positive
mutagenic call (Test System: E. COLI, Strain/Indicator: WP2 UVRA(P), Metabolic Activation: NONE, Method: STANDARD PLATE): inactive; negative
mutagenic call (Test System: E. COLI, Strain/Indicator: WP2 UVRA, Metabolic Activation: NONE, Method: FLUCTUATION TEST): inactive; negative
mutagenic call (Test System: UDS RODENT HEPATOCYTES, Strain/Indicator: THY INCORP (NON-S-PHASE), Method: AUTORADIOGRAPHY): active; positive
